Measurements from the supplement of paper PMC10307832.

Experiments:
Assay in all cases: relative viability (nuclei count vs DMSO), 5 days (fraction); higher = more cells survive
[1] = compound: CC1=CC(=CC=C1)NC2=NC(=CS2)C3=CC=NC=C3 + Cc1nc(Nc2ncc(C(=O)Nc3c(C)cccc3Cl)s2)cc(N2CCN(CCO)CC2)n1 [Dasatinib] (partner 0.075 µM)
Summary of the method: (§1)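 One day after seeding in 1536-well plates, lung cancer cell lines were dosed by pin tool. Dosing was either single-drug or a fixed anchor-drug dose plus five library-drug doses (not always all listed) in √10 steps. After 5 days, nuclei were stained in one fix-and-stain step and counted on 4× images, and relative viability is the nuclei count of treated wells over that of vehicle wells, given as the median of duplicate plates.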

[2] = compound: CC1=CC(=CC=C1)NC2=NC(=CS2)C3=CC=NC=C3 + CC(=O)Nc1cccc(-n2c(=O)n(C3CC3)c(=O)c3c(Nc4ccc(I)cc4F)n(C)c(=O)c(C)c32)c1 [Trametinib] (partner 0.02 µM)
Summary of the method: as §1

Masitinib + Pictilisib = compound: Cc1ccc(NC(=O)c2ccc(CN3CCN(C)CC3)cc2)cc1Nc1nc(-c2cccnc2)cs1 [Masitinib] + CS(=O)(=O)N1CCN(Cc2cc3nc(-c4cccc5[nH]ncc45)nc(N4CCOCC4)c3s2)CC1 [Pictilisib] (partner 1 µM)
Summary of the method: as §1

Masitinib + OSI-027 = compound: Cc1ccc(NC(=O)c2ccc(CN3CCN(C)CC3)cc2)cc1Nc1nc(-c2cccnc2)cs1 [Masitinib] + COc1cccc2cc(-c3nc([C@H]4CC[C@H](C(=O)O)CC4)n4ncnc(N)c34)[nH]c12 [OSI-027] (partner 0.5 µM)
Summary of the method: as §1

Cell Line: UMC-11
- relative viability ([1]; first compound 0.08 µM): 0.477
- relative viability ([1]; first compound 0.253 µM): 0.494
- relative viability ([1]; first compound 0.8 µM): 0.468
- relative viability ([1]; first compound 2.53 µM): 0.481
- relative viability ([1]; first compound 8 µM): 0.534
- relative viability ([2]; first compound 0.08 µM): 0.555
- relative viability ([2]; first compound 0.253 µM): 0.737
- relative viability ([2]; first compound 0.8 µM): 0.731
- relative viability ([2]; first compound 2.53 µM): 0.768
- relative viability ([2]; first compound 8 µM): 0.764
- relative viability (Masitinib + Pictilisib; first compound 0.01 µM): 0.744
- relative viability (Masitinib + Pictilisib; first compound 0.03162 µM): 0.862
- relative viability (Masitinib + Pictilisib; first compound 0.1 µM): 0.948
- relative viability (Masitinib + Pictilisib; first compound 0.3162 µM): 0.972
- relative viability (Masitinib + Pictilisib; first compound 1 µM): 0.856
- relative viability (Masitinib + OSI-027; first compound 0.03162 µM): 0.46
- relative viability (Masitinib + OSI-027; first compound 0.1 µM): 0.487
- relative viability (Masitinib + OSI-027; first compound 0.3162 µM): 0.491
- relative viability (Masitinib + OSI-027; first compound 1 µM): 0.46
